Assays:
Assay type in all cases: cell-based
Gal-4 hPPARα = molecular target: T1, Gal-4 hPPARα (Homo sapiens, UniProt Q07869); test: Gal4-hPPARα transient transfection reporter assay in Cos cells; conditions: luciferase reporter, 24 hours with compound, scale 1-5, read-out: Gal-4 hPPAR α EC50 (scaled number)
T1 construct: Plasmids pGal4-hPPARα, pGal4-hPPARγ, pGal4-hPPARδ and pG5-TK-pGL3 were constructed as previously described by Staels, Bart, et al., Nature 1998 Jun; 25
T1 sequence (Q07869 200-468 limits assumed): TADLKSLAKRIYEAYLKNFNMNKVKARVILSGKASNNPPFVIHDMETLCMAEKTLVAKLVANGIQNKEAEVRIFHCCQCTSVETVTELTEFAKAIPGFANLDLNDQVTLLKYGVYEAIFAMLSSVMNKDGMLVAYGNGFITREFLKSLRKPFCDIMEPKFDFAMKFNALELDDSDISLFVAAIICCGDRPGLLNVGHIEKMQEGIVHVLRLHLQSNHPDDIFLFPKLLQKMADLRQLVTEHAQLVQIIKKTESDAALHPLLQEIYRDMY
Procedure: (§1) Construction of recombinant plasmids. Plasmids pGal4-hPPARα, pGal4-hPPARγ, pGal4-hPPARδ and pG5-TK-pGL3 were constructed as previously described by Staels, Bart, et al., Nature 1998 Jun. 25; 393 (6687): 790-793, by Staels (Institut Pasteur de Lille, FR).
(§2) Transient transfection assays. Cos cells were seeded in 60-mm dishes at a density of 5.5×10^5 cells/dish in Dulbecco's modified Eagle's medium (DMEM) supplemented with 10% fetal calf serum (FCS) and incubated at 37° C. for 24 hours before transfection. Cells were transfected in Opti-MEM (Gibco; Invitrogen, Carlsbad, Calif.) without FCS for 3 hours at 37° C., using polyethylenimine, with reporter and expression plasmids. The plasmid pBluescript (Stratagene, La Jolla, Calif.) was used as carrier DNA to set the final amount of DNA to 5.5 μg/dish. The pCMV-b-galactosidase expression plasmid was cotransfected as a control for transfection efficiency. Transfection was stopped by the addition of DMEM supplemented with 10% FCS, and cells were then incubated at 37° C. After 16 hours, cells were trypsinized and seeded in 96-well plates at the density of 2×10^4 cells/well and incubated for 6 hours in 10% FCS-containing DMEM. Cells were then incubated for 24 hours in DMEM containing 0.2% FCS and increasing concentrations of the compound tested or vehicle (DMSO). At the end of the experiment, cells were washed once with ice-cold PBS, lysed and the luciferase and b-galactosidase assays were performed in a luminometer and spectrophotomer. Transfection efficiencies were normalized with the b-galactosidase activity assay. Half-maximal effective concentration (EC50) was estimated using Prism software (GraphPad). All transfection experiments were performed at least three times.
(§3) In the following tables, proprietary compound EC50 values for hPPAR α, β, δ and γ are shown. The EC50 value is the concentration of a drug that induces a response halfway between the baseline and maximum, and is commonly used as a measure of drug potency. EC50 values are reported on a scale of 1 through 5, wherein the value scale is defined for each receptor as follows: […]

Gal-4 hPPARβ/δ = molecular target: T2, Gal-4 hPPARβ/δ (Homo sapiens, UniProt Q03181); test: Gal4-hPPARδ transient transfection reporter assay in Cos cells; conditions: luciferase reporter, 24 hours with compound, scale 1-5, read-out: Gal-4 hPPAR β/δ EC50 (scaled number)
T2 construct: Plasmids pGal4-hPPARα, pGal4-hPPARγ, pGal4-hPPARδ and pG5-TK-pGL3 were constructed as previously described by Staels, Bart, et al., Nature 1998 Jun; 25
T2 sequence (Q03181 171-441 limits assumed): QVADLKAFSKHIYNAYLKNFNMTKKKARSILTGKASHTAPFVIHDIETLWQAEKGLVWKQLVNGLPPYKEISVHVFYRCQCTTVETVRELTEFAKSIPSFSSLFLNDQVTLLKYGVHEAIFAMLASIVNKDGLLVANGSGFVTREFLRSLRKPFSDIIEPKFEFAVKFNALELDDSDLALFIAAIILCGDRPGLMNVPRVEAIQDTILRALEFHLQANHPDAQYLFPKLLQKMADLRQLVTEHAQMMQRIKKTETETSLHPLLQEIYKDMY
Procedure: as §1, §2, §3

Gal-4 hPPARγ = molecular target: T3, Gal-4 hPPARγ (Homo sapiens, UniProt P37231); test: Gal4-hPPARγ transient transfection reporter assay in Cos cells; conditions: luciferase reporter, 24 hours with compound, scale 1-5, read-out: Gal-4 hPPAR γ EC50 (scaled number)
T3 construct: Plasmids pGal4-hPPARα, pGal4-hPPARγ, pGal4-hPPARδ and pG5-TK-pGL3 were constructed as previously described by Staels, Bart, et al., Nature 1998 Jun; 25
T3 sequence (P37231 238-505 limits assumed): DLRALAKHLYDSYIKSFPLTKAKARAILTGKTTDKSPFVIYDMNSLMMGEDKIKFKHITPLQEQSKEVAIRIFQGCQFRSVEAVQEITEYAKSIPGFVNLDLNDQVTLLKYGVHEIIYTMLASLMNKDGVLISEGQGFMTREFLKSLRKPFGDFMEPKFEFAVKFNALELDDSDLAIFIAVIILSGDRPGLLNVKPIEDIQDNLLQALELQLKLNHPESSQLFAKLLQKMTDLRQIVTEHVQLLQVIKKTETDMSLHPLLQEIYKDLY
Procedure: as §1, §2, §3

Row | Structure (SMILES) | EC50 (Gal-4 hPPARα) | EC50 (Gal-4 hPPARβ/δ) | EC50 (Gal-4 hPPARγ)
1 | CCCn1c(COC(=O)c2ccc(SC(C)(C)C(=O)O)cc2)nn(Cc2ccc(-c3ccccc3)cc2)c1=O [Compound 163, 2-(4-(((1-(biphenyl-4-ylmethyl)-5-oxo-4-propyl-4,5-dihydro-1H-1,2,4-triazol-3-yl)methoxy)carbonyl)phenylthio)-2-methylpropanoic acid] | 1 to 50 nM | > 1000 nM | > 1000 nM
2 | C[C@H](Cc1cn(Cc2ccc(C(C)(C)C)cc2)nn1)OC(=O)c1ccc(SC(C)(C)C(=O)O)cc1 [Compound 138, 4-(1-Carboxy-1-methyl-ethylsulfanyl)-benzoic acid (R)-2-[1-(4-tert-butyl-benzyl)-1H-1,2,3-triazol-4-yl]-1-methyl-ethyl ester] | 1 to 50 nM | > 1000 nM | > 1000 nM
3 | COc1ccc(Cn2cc(COC(=O)c3ccc(SC(C)(C)C(=O)O)cc3)cn2)cc1 [Compound 8, 2-(4-(((1-(4-methoxybenzyl)-1H-pyrazol-4-yl)methoxy)carbonyl)phenylthio)-2-methylpropanoic acid] | 51 to 200 nM | > 1000 nM | > 1000 nM
4 | Cc1ccc(Cn2nc(COC(=O)c3ccc(SC(C)(C)C(=O)O)cc3)[nH]c2=O)cc1 [Compound 261, 4-(1-Carboxy-1-methyl-ethylsulfanyl)-benzoic acid 1-(4-methyl-benzyl)-5-oxo-4,5-dihydro-1H-1,2,4-triazol-3-ylmethyl ester] | 51 to 200 nM | > 1000 nM | > 1000 nM
5 | CCCCCCn1c(COC(=O)c2ccc(OC(C)(C)C(=O)O)cc2)nn(Cc2ccc(C(OC)(C(F)(F)F)C(F)(F)F)cc2)c1=O [Compound 202, 2-(4-(((1-(4-(1,1,1,3,3,3-hexafluoro-2-methoxypropan-2-yl)benzyl)-4-hexyl-5-oxo-4,5-dihydro-1H-1,2,4-triazol-3-yl)methoxy)carbonyl)phenoxy)-2-methylpropanoic acid] | 1 to 50 nM | > 1000 nM | > 1000 nM
6 | CCn1c(COC(=O)c2ccc(OC(C)(C)C(=O)O)cc2)nn(Cc2ccc(C(C)(C)C)cc2)c1=O [Compound 196, 2-(4-(((1-(4-tert-butylbenzyl)-4-ethyl-5-oxo-4,5-dihydro-1H-1,2,4-triazol-3-yl)methoxy)carbonyl)phenoxy)-2-methylpropanoic acid] | 51 to 200 nM | > 1000 nM | > 1000 nM
7 | CC(C)(Sc1ccc(C(=O)OCc2cnn(Cc3ccc(F)c(F)c3)c2)cc1)C(=O)O [Compound 24, 2-(4-(((1-(3,4-difluorobenzyl)-1H-pyrazol-4-yl)methoxy)carbonyl)phenylthio)-2-methylpropanoic acid] | 51 to 200 nM | > 1000 nM | > 1000 nM
8 | CC(C)(Sc1ccc(C(=O)OCc2cnn(-c3ccc(C(F)(F)F)cc3)c2)cc1)C(=O)O [Compound 18, 2-methyl-2-(4-(((1-(4-(trifluoromethyl)phenyl)-1H-pyrazol-4-yl)methoxy)carbonyl)phenylthio)propanoic acid] | 1 to 50 nM | 201 to 999 nM | 201 to 999 nM
9 | C[C@@H](OC(=O)c1ccc(SC(C)(C)C(=O)O)cc1)c1cn(Cc2cc(C(F)(F)F)cc(C(F)(F)F)c2)nn1 [Compound 140, 4-(1-Carboxy-1-methyl-ethylsulfanyl)-benzoic acid (R)-1-[1-(3,5-bis-trifluoromethyl-benzyl)-1H-1,2,3-triazol-4-yl]-ethyl ester] | 1 to 50 nM | > 1000 nM | > 1000 nM
10 | CC(C)(Sc1ccc(C(=O)OCc2cnn(Cc3cccc(C(F)(F)F)c3)c2)cc1)C(=O)O [Compound 30, 2-methyl-2-(4-(((1-(3-(trifluoromethyl)benzyl)-1H-pyrazol-4-yl)methoxy)carbonyl)phenylthio)propanoic acid] | 1 to 50 nM | > 1000 nM | > 1000 nM
11 | CCCn1c(COC(=O)c2ccc(OC(C)(C)C(=O)O)c(C)c2)nn(Cc2ccc(C(C)(C)C)cc2)c1=O [Compound 266, 4-(1-Carboxy-1-methyl-ethoxy)-3-methyl-benzoic acid 1-(4-tert-butyl-benzyl)-5-oxo-4-propyl-4,5-dihydro-1H-1,2,4-triazol-3-ylmethyl ester] | 201 to 999 nM | > 1000 nM | > 1000 nM
12 | C[C@H](OC(=O)c1ccc(SC(C)(C)C(=O)O)cc1)c1cn(Cc2ccc(C(F)(F)F)cc2)nn1 [Compound 97, (S)-2-methyl-2-(4-((1-(1-(4-(trifluoromethyl)benzyl)-1H-1,2,3-triazol-4-yl)ethoxy)carbonyl)phenylthio)propanoic acid] | 201 to 999 nM | > 1000 nM | > 1000 nM
13 | CCn1c(COC(=O)c2ccc(SC(C)(C)C(=O)O)cc2)nn(Cc2ccc(C(F)(F)F)cc2)c1=O [Compound 197, 2-(4-(((4-ethyl-5-oxo-1-(4-(trifluoromethyl)benzyl)-4,5-dihydro-1H-1,2,4-triazol-3-yl)methoxy)carbonyl)phenylthio)-2-methylpropanoic acid] | 1 to 50 nM | > 1000 nM | > 1000 nM
14 | Cc1ccc(Cn2cc([C@H](C)OC(=O)c3ccc(SC(C)(C)C(=O)O)cc3)nn2)cc1 [Compound 85, (S)-2-methyl-2-(4-((1-(1-(4-methylbenzyl)-1H-1,2,3-triazol-4-yl)ethoxy)carbonyl)phenylthio)propanoic acid] | 201 to 999 nM | > 1000 nM | > 1000 nM
15 | Cc1ccc(Cn2cc(CCOC(=O)c3ccc(SC(C)(C)C(=O)O)cc3)nn2)cc1 [Compound 145, 4-(1-Carboxy-1-methyl-ethylsulfanyl)-benzoic acid 2-[1-(4-methyl-benzyl)-1H-1,2,3-triazol-4-yl]-ethyl ester] | 201 to 999 nM | > 1000 nM | > 1000 nM
16 | CC(C)(Sc1ccc(C(=O)OCc2cnn(Cc3ccc(-c4ccccc4)cc3)c2)cc1)C(=O)O [Compound 22, 2-(4-(((1-(biphenyl-4-ylmethyl)-1H-pyrazol-4-yl)methoxy)carbonyl)phenylthio)-2-methylpropanoic acid] | 51 to 200 nM | > 1000 nM | > 1000 nM
17 | CC(C)(Sc1ccc(C(=O)OCc2cnn(Cc3ccc(C(C)(C)C)cc3)c2)cc1)C(=O)O [Compound 6, 2-(4-(((1-(4-tert-butylbenzyl)-1H-pyrazol-4-yl)methoxy)carbonyl)phenylthio)-2-methylpropanoic acid] | 1 to 50 nM | > 1000 nM | 201 to 999 nM
18 | CCCn1c(COC(=O)c2ccc(SC(C)(C)C(=O)O)cc2)nn(Cc2ccc(F)cc2)c1=O [Compound 165, 2-(4-(((1-(4-fluorobenzyl)-5-oxo-4-propyl-4,5-dihydro-1H-1,2,4-triazol-3-yl)methoxy)carbonyl)phenylthio)-2-methylpropanoic acid] | 51 to 200 nM | > 1000 nM | > 1000 nM
19 | CSc1ccc(Cn2cc(COC(=O)c3ccc(SC(C)(C)C(=O)O)cc3)cn2)cc1 [Compound 20, 2-methyl-2-(4-(((1-(4-(methylthio)benzyl)-1H-pyrazol-4-yl)methoxy)carbonyl)phenylthio)propanoic acid] | 1 to 50 nM | > 1000 nM | > 1000 nM

Source: patent US20100184815A1 (priority 2008, published 2010)
